What was measured:
Experiment in all cases: Kinase profiling in a biochemical assay panel (mobility shift assays and ELISA), %-inhibition at 1 μM; selectivity entropy
[1] = target: panel of more than 300 wild-type and mutant kinases (313 kinase panel) (Homo sapiens, UniProt P49674); conditions: kinase CK1ε; 1 μM compound
[2] = target: panel of more than 300 wild-type and mutant kinases (313 kinase panel) (Homo sapiens, UniProt Q9UKE5); conditions: kinase TNIK; 1 μM
[3] = target: T1, panel of more than 300 wild-type and mutant kinases (313 kinase panel) (Homo sapiens, UniProt Q12851); conditions: kinase MAP4K2; compound at 1 μM
T1 sequence (Q12851 1-820): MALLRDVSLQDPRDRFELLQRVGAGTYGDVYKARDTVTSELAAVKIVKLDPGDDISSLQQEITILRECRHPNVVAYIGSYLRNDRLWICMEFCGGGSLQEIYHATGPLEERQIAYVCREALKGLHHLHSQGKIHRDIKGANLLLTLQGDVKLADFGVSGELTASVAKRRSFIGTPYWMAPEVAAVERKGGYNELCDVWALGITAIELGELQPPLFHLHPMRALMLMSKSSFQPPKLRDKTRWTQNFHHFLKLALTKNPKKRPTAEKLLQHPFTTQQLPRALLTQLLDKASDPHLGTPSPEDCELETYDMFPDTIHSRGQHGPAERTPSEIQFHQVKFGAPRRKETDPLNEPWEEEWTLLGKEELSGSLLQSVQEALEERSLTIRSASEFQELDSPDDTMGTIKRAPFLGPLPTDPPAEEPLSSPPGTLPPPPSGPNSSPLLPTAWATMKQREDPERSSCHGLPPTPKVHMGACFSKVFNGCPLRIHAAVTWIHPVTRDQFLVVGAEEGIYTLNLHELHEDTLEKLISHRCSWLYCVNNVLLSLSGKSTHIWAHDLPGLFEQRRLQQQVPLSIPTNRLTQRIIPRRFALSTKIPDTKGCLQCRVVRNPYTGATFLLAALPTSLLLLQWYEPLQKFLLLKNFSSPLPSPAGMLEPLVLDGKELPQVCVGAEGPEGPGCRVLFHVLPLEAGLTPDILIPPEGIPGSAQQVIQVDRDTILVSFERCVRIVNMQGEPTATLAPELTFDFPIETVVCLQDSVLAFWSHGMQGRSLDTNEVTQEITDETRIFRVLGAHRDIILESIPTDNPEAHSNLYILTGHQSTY

[4] = target: panel of more than 300 wild-type and mutant kinases (313 kinase panel) (Homo sapiens, UniProt P35916)
[5] = target: panel of more than 300 wild-type and mutant kinases (313 kinase panel) (Homo sapiens, UniProt P24941); conditions: 1 μM compound; for %-inhibition, CDK2/CycA2: kinase CDK2/CycA2; for %-inhibition, CDK2/CycE1: kinase CDK2/CycE1
[6] = target: panel of more than 300 wild-type and mutant kinases (313 kinase panel) (Homo sapiens, UniProt Q9Y2H1); conditions: kinase NDR2; 1 μM
panel of more than 300 wild-type and mutant kinases (313 kinase panel) (Homo sapiens, UniProt Q9Y2H1), sequence (Q9Y2H1 whole entry, change not shown): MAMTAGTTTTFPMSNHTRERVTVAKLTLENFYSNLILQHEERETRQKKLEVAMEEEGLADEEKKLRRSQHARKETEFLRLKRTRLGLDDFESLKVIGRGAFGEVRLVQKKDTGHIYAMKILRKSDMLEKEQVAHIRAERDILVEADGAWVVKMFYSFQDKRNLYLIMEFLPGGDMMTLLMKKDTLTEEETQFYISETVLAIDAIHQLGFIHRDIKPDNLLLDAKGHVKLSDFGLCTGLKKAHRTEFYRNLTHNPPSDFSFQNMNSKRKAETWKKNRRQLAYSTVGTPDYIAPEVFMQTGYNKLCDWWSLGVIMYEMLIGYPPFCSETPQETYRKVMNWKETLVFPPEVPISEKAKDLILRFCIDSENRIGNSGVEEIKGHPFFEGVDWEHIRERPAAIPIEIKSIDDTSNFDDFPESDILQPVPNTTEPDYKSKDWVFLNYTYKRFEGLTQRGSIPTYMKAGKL

[7] = target: panel of more than 300 wild-type and mutant kinases (313 kinase panel) (Homo sapiens, UniProt Q04912); conditions: kinase RON; 1 μM
[8] = target: panel of more than 300 wild-type and mutant kinases (313 kinase panel) (Homo sapiens, UniProt Q9P286); conditions: kinase PAK5; 1 μM
panel of more than 300 wild-type and mutant kinases (313 kinase panel) (Homo sapiens, UniProt Q9P286), sequence (Q9P286 whole entry, change not shown): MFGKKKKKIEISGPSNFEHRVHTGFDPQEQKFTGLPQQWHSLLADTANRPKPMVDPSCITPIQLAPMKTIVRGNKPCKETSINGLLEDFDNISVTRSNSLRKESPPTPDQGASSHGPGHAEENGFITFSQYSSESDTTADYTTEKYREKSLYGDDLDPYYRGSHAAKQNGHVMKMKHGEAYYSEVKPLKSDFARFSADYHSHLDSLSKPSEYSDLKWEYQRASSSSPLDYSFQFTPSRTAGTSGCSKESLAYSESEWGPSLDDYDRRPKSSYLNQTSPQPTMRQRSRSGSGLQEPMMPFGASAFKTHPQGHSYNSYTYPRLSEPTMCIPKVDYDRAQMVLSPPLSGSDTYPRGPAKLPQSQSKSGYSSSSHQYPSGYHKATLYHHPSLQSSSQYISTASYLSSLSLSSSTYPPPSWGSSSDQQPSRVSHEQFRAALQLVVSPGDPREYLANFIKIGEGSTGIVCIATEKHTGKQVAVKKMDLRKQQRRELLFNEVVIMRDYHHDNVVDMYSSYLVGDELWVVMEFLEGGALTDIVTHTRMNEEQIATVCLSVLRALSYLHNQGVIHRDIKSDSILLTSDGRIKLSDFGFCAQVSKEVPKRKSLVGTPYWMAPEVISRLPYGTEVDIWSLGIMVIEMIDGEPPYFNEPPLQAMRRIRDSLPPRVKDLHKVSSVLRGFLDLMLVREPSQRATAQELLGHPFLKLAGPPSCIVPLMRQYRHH

[9] = target: T2, panel of more than 300 wild-type and mutant kinases (313 kinase panel) (Homo sapiens, UniProt Q9BXA7); conditions: kinase TSSK1; 1 μM
T2 sequence (Q9BXA7 1-367): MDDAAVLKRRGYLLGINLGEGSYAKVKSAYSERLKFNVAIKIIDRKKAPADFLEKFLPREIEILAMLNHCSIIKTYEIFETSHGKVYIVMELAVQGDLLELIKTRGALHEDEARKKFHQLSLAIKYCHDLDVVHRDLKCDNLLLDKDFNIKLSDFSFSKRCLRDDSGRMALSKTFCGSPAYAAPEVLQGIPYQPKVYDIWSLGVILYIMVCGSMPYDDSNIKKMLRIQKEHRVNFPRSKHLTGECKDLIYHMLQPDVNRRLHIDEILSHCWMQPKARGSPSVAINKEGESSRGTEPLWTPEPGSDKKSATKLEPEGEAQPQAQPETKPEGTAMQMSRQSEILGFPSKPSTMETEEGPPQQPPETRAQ

[10] = target: panel of more than 300 wild-type and mutant kinases (313 kinase panel) (Homo sapiens, UniProt Q5VT25); conditions: kinase MRCKα; 1 μM
[11] = target: panel of more than 300 wild-type and mutant kinases (313 kinase panel) (Homo sapiens, UniProt P07947)
panel of more than 300 wild-type and mutant kinases (313 kinase panel) (Homo sapiens, UniProt P07947), sequence (P07947 whole entry, change not shown): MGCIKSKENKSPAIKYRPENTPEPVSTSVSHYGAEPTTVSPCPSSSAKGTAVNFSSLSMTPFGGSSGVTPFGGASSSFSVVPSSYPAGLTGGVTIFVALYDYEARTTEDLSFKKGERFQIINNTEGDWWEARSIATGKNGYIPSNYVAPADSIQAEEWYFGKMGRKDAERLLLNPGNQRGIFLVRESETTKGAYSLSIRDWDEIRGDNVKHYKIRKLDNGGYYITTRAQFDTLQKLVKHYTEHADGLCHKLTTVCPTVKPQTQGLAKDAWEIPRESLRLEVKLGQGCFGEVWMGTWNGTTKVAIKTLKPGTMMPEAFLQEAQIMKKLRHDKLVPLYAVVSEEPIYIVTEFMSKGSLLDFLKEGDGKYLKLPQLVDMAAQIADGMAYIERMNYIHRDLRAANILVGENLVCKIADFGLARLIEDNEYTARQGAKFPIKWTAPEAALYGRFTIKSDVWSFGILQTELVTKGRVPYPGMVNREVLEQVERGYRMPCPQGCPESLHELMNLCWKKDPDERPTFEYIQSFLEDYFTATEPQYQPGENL

panel of more than 300 wild-type and mutant kinases (313 kinase panel) (Homo sapiens, UniProt Q9UKE5), sequence (Q9UKE5 whole entry, change not shown): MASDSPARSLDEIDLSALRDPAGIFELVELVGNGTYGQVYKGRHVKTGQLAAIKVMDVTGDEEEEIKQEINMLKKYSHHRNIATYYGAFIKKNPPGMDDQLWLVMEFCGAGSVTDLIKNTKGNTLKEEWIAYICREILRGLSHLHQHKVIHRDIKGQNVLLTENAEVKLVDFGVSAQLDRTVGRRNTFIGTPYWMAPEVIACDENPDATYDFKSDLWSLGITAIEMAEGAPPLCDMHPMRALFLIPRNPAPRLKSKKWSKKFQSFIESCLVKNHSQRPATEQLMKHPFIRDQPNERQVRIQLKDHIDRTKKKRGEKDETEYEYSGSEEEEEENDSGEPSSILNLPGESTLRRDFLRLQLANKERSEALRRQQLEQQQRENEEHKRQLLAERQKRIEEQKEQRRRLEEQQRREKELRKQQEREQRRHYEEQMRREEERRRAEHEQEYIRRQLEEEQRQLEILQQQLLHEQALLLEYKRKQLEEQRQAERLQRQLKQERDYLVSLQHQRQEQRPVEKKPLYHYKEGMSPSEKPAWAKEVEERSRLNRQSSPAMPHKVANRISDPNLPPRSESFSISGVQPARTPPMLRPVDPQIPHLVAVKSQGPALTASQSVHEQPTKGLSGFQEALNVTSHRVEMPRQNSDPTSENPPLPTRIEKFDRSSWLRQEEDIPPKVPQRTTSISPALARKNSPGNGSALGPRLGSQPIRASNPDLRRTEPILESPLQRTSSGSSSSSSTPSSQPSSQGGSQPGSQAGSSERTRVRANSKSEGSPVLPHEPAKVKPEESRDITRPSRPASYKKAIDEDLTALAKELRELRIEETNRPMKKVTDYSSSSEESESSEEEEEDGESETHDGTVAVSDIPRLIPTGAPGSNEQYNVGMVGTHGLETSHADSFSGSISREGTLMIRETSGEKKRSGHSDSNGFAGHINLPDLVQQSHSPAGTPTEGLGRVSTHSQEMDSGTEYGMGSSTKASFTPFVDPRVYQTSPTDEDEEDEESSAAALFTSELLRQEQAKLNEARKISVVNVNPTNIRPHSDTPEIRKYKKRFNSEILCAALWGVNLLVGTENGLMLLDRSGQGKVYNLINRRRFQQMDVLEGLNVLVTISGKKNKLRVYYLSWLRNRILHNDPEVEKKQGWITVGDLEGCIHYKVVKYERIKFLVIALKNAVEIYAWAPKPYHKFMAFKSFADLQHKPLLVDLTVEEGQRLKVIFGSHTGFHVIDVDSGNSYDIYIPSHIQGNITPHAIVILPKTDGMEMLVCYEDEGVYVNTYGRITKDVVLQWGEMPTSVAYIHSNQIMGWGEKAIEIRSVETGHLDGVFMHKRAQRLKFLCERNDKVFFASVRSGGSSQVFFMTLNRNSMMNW

Row | Compound | %-inhibition, CK1ε [1] [%] | %-inhibition of TNIK [2] [%] | %-inhibition of MAP4K2 [3] [%] | %-inhibition of FLT4 ([4]; kinase FLT4, compound at 1 μM) [%] | %-inhibition, CDK2/CycA2 [5] [%] | %-inhibition, CDK2/CycE1 [5] [%] | %-inhibition of NDR2 [6] [%] | %-inhibition of RON [7] [%] | %-inhibition of PAK5 [8] [%] | %-inhibition of TSSK1 [9] [%] | %-inhibition of MRCKα [10] [%] | %-inhibition of YES ([11]; kinase YES, compound at 1 μM) [%] | %-inhibition of FLT4 ([4]; 1 µM) [%] | %-inhibition of YES ([11]; 1 µM) [%]
1 | CNC(=O)c1cc(Oc2ccc(NC(=O)Nc3ccc(Cl)c(C(F)(F)F)c3)c(F)c2)ccn1 [regorafenib] | -6 | 42 | 46 | 104 | -12 | -2.7 | -8.54 | 3.5 | -8 | -7 | -5 | 62 |  | 
2 | N#CC[C@H](C1CCCC1)n1cc(-c2ncnc3[nH]ccc23)cn1 [ruxolitinib] | 7.39 | 0.811 | 7 |  | 2.48 | -12 | 89 | -5 | 14 | 39 | 0.766 |  | 36 | 24
3 | CO[C@H]1C[C@@H]2CC[C@@H](C)[C@@](O)(O2)C(=O)C(=O)N2CCCC[C@H]2C(=O)O[C@H]([C@H](C)C[C@@H]2CC[C@@H](OCCO)[C@H](OC)C2)CC(=O)[C@H](C)/C=C(\C)[C@@H](O)[C@@H](OC)C(=O)[C@H](C)C[C@H](C)/C=C/C=C/C=C/1C [everolimus] | -6.43 | -3 | -7 | -0.439 | -11 | -14 | -8 | -6.45 | -1.87 | -6 | -6 | 0 |  | 
4 | CC(=O)Nc1cccc(-n2c(=O)n(C3CC3)c(=O)c3c(Nc4ccc(I)cc4F)n(C)c(=O)c(C)c32)c1 [trametinib] | -5.38 | 3 | 4 | 1.51 | 24 | 2.59 | -1.48 | -6.44 | -2.62 | -5 | -0.565 | -1.63 |  | 
5 | CO[C@H]1C[C@@H]2CC[C@@H](C)[C@@](O)(O2)C(=O)C(=O)N2CCCC[C@H]2C(=O)O[C@H]([C@H](C)C[C@@H]2CC[C@@H](OC(=O)C(C)(CO)CO)[C@H](OC)C2)CC(=O)[C@H](C)/C=C(\C)[C@@H](O)[C@@H](OC)C(=O)[C@H](C)C[C@H](C)/C=C/C=C/C=C/1C [temsirolimus] | -7 | -2.54 | -3 | -0.926 | -8 | -1.35 | -3.63 | -3 | -6 | -7 | -1.53 | -7 |  | 

— paper PMC3961306, “Comparison of the Cancer Gene Targeting and Biochemical Selectivities of All Targeted Kinase Inhibitors Approved for Clinical Use” (PLoS ONE, 2014)
